PMC11083148, “Structure–Activity Relationship Studies on Highly Functionalized Pyrazole Hydrazones and Amides as Antiproliferative and Antioxidant Agents” (International Journal of Molecular Sciences, 2024)

Tests used:
COLO 205 = experiment: NCI screening, Colon Cancer; assay type: cell-based; details: COLO 205, Colon Cancer; 10 µM
Experimental: (§1) In addition, 11a and 17 (representative compounds of the acylhydrazone and amide series) were selected by the National Cancer Institute (NCI, Germantown, MD, USA) and tested at a fixed concentration of 10 µM against a panel of fifty-nine different cancer cell lines, including highly metastatic tumors (Table 2).

KM12 = experiment: NCI screening, Colon Cancer; assay type: cell-based; details: 10 µM
Experimental: as §1

HCC-2998 = experiment: NCI screening, Colon Cancer; assay type: cell-based; details: HCC-2998, Colon Cancer; 10 µM
Experimental: as §1

PC-3 = experiment: NCI screening, Prostate Cancer; assay type: cell-based; details: PC-3, Prostate Cancer; 10 µM
Experimental: as §1

DU-145 = experiment: NCI screening, Prostate Cancer; assay type: cell-based; details: DU-145, Prostate Cancer; 10 µM
Experimental: as §1

washed platelets [1] = experiment: ROS assay in platelets (DCFH-DA, thrombin-stimulated); assay type: cell-based, human; details: Homo sapiens, Platelet, 0.1 U/mL thrombin, mean ± SD, read-out: IC50 ROS production inhibition
Outline: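 Washed human platelets (1.0 × 10^8/mL) in pH 7.4 HEPES buffer were pre-incubated 15 min at 37 °C with compound, then stimulated with 0.1 U/mL thrombin. ROS was read as DCF fluorescence from DCFH-DA by flow cytometry. IC50 comes from three-point concentration-response nonlinear regression versus saline control, mean of six experiments.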

OVCAR-5 = experiment: NCI screening, Ovarian Cancer; assay type: cell-based; details: OVCAR-5, Ovarian Cancer; 10 µM
Experimental: as §1

IGROV1 = experiment: NCI screening, Ovarian Cancer; assay type: cell-based; details: 10 µM
Experimental: as §1

OVCAR-4 = experiment: NCI screening, Ovarian Cancer; assay type: cell-based; details: OVCAR-4, Ovarian Cancer; 10 µM
Experimental: as §1

SK-OV-3 = experiment: NCI screening, Ovarian Cancer; assay type: cell-based; details: SK-OV-3, Ovarian Cancer; 10 µM
Experimental: as §1

NCI/ADR-RES = experiment: NCI screening, Ovarian Cancer; assay type: cell-based; details: 10 µM
Experimental: as §1

OVCAR-8 = experiment: NCI screening, Ovarian Cancer; assay type: cell-based; details: OVCAR-8, Ovarian Cancer; 10 µM
Experimental: as §1

washed platelets [2] = experiment: Platelet aggregation (thrombin-induced, Born's method); assay type: cell-based; details: Homo sapiens, 0.1 U/mL thrombin, mean ± SD, read-out: IC50 Aggregation inhibition
Outline: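 Washed human platelets (3.0 × 10^8/mL) were preincubated with compound at 37 °C for 3 min. Aggregation was then triggered with 0.1 U/mL thrombin and measured by Born's turbidimetric method, with IC50 values calculated from the response.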

SK-MEL-28 = experiment: NCI screening, Melanoma; assay type: cell-based; details: SK-MEL-28, Melanoma; 10 µM
Experimental: as §1

MALME-3M = experiment: NCI screening, Melanoma; assay type: cell-based; details: 10 µM
Experimental: as §1

SK-MEL-2 = experiment: NCI screening, Melanoma; assay type: cell-based; details: SK-MEL-2, Melanoma; 10 µM
Experimental: as §1

UACC-257 = experiment: NCI screening, Melanoma; assay type: cell-based; details: UACC-257, Melanoma; 10 µM
Experimental: as §1

UACC-62 = experiment: NCI screening, Melanoma; assay type: cell-based; details: UACC-62, Melanoma; 10 µM
Experimental: as §1

SK-MEL-5 = experiment: NCI screening, Melanoma; assay type: cell-based; details: SK-MEL-5, Melanoma; 10 µM
Experimental: as §1

SNB-19 = experiment: NCI screening, CNS Cancer; assay type: cell-based; details: SNB-19, CNS Cancer; 10 µM
Experimental: as §1

SF-268 = experiment: NCI screening, CNS Cancer; assay type: cell-based; details: SF-268, CNS Cancer; 10 µM
Experimental: as §1

U251 = experiment: NCI screening, CNS Cancer; assay type: cell-based; details: 10 µM
Experimental: as §1

SF-539 = experiment: NCI screening, CNS Cancer; assay type: cell-based; details: SF-539, CNS Cancer; 10 µM
Experimental: as §1

SNB-75 = experiment: NCI screening, CNS Cancer; assay type: cell-based; details: SNB-75, CNS Cancer; 10 µM
Experimental: as §1

SF-295 = experiment: NCI screening, CNS Cancer; assay type: cell-based; details: SF-295, CNS Cancer; 10 µM
Experimental: as §1

COc1ccc(/C=N/NC(=O)c2c(N)nn(C)c2Nc2ccccc2)cc1 [11a, (E)-3-amino-N′-(4-methoxybenzylidene)-1-methyl-5-(phenylamino)-1H-pyrazole-4-carbohydrazide]
Growth Percentage (%) (COLO 205): 35.82% | Growth Percentage (%) (KM12): 27.82% | Growth Percentage (%) (HCC-2998): 59.18% | Growth Percentage (%) (PC-3): 55.90% | Growth Percentage (%) (DU-145): 76.34% | IC50 (washed platelets [1]): 123 ± 12 µM | Growth Percentage (%) (OVCAR-5): 76.88% | Growth Percentage (%) (IGROV1): 39.64% | Growth Percentage (%) (OVCAR-4): 87.03% | Growth Percentage (%) (SK-OV-3): 49.64% | Growth Percentage (%) (NCI/ADR-RES): 32.98% | Growth Percentage (%) (OVCAR-8): 70.80% | IC50 (washed platelets [2]): 183 ± 13 µM | Growth Percentage (%) (SK-MEL-28): 57.48% | Growth Percentage (%) (MALME-3M): 44.75% | Growth Percentage (%) (SK-MEL-2): 70.70% | Growth Percentage (%) (UACC-257): 56.35% | Growth Percentage (%) (UACC-62): 23.72% | Growth Percentage (%) (SK-MEL-5): 57.21% | Growth Percentage (%) (SNB-19): 36.78% | Growth Percentage (%) (SF-268): 58.65% | Growth Percentage (%) (U251): 33.33% | Growth Percentage (%) (SF-539): 40.20% | Growth Percentage (%) (SNB-75): 35.14% | Growth Percentage (%) (SF-295): 98.52%

CCOC(=O)c1c(NC(=O)C2CC2)nn(C)c1Nc1ccccc1 [compound 17, Ethyl 3-(cyclopropanecarboxamido)-1-methyl-5-(phenylamino)-1H-pyrazole-4-carboxylate]
Growth Percentage (%) (COLO 205): 106.91% | Growth Percentage (%) (KM12): 105.43% | Growth Percentage (%) (HCC-2998): 114.15% | Growth Percentage (%) (PC-3): 95.84% | Growth Percentage (%) (DU-145): 104.67% | IC50 (washed platelets [1]): 573 µM | Growth Percentage (%) (OVCAR-5): 99.49% | Growth Percentage (%) (IGROV1): 100.75% | Growth Percentage (%) (OVCAR-4): 99.35% | Growth Percentage (%) (SK-OV-3): 99.73% | Growth Percentage (%) (NCI/ADR-RES): 103.29% | Growth Percentage (%) (OVCAR-8): 101.92% | IC50 (washed platelets [2]): 460 µM | Growth Percentage (%) (SK-MEL-28): 107.16% | Growth Percentage (%) (MALME-3M): 98.67% | Growth Percentage (%) (SK-MEL-2): 100.69% | Growth Percentage (%) (UACC-257): 99.58% | Growth Percentage (%) (UACC-62): 93.55% | Growth Percentage (%) (SK-MEL-5): 99.45% | Growth Percentage (%) (SNB-19): 98.39% | Growth Percentage (%) (SF-268): 101.17% | Growth Percentage (%) (U251): 100.80% | Growth Percentage (%) (SF-539): 97.42% | Growth Percentage (%) (SNB-75): 94.70% | Growth Percentage (%) (SF-295): 102.51%
